Measured values as given in US20230141887A1, “CRYSTAL FORM OF DIAZASPIROPYRAN COMPOUND” (MEDSHINE DISCOVERY INC., priority 2020, published 2023).
Numbering of substitutions follows the chain as printed.

How the values were obtained:
[1] = test system: MV-4-11 cells; experiment: Assay of inhibiting proliferation of MV-4-11 in vitro (CellTiter-Glo, 3 days); type: cell-based, human; conditions: MV-4-11 cell proliferation
Description: IMDM medium, fetal bovine serum, and penicillin/streptomycin antibiotics were purchased from Promega (Madison, Wis.). The MV-4-11 cell line was purchased from the Cell Bank of the Chinese Academy of Sciences. Envision Multi-Label Analyzer (PerkinElmer).
MV-4-11 cells were seeded in a white 96-well plate with 80 μL of cell suspension per well containing 10,000 MV-4-11 cells. The cell plate was cultured overnight in a carbon dioxide incubator.
The compounds to be tested were 5-fold serially diluted with a pipette to obtain eight concentrations, i.e., from 2 mmol/L to 26 nmol/L. The assay was carried out in duplicate. 78 μL of medium was added to the intermediate plate, and then 2 μL per well of the serially diluted compounds were transferred to the intermediate plate according to the corresponding position. After mixing, an amount of 20 μL per well was transferred to the cell plate. The cell plate was cultured in a carbon dioxide incubator for 3 days.
25 μL per well of Promega CellTiter-Glo reagent was added to the cell plate and incubated at room temperature for 10 minutes to stabilize the luminescence signal. A PerkinElmer Envision multi-label analyzer was used for reading.
The original data was converted into an inhibition rate, and the IC50 value can be obtained by four-parameter curve fitting.

[2] = molecular target: T1, FLT3(R834Q) (Homo sapiens, UniProt P36888, R834Q); type: binding
T1 sequence (P36888 27-993 R834Q): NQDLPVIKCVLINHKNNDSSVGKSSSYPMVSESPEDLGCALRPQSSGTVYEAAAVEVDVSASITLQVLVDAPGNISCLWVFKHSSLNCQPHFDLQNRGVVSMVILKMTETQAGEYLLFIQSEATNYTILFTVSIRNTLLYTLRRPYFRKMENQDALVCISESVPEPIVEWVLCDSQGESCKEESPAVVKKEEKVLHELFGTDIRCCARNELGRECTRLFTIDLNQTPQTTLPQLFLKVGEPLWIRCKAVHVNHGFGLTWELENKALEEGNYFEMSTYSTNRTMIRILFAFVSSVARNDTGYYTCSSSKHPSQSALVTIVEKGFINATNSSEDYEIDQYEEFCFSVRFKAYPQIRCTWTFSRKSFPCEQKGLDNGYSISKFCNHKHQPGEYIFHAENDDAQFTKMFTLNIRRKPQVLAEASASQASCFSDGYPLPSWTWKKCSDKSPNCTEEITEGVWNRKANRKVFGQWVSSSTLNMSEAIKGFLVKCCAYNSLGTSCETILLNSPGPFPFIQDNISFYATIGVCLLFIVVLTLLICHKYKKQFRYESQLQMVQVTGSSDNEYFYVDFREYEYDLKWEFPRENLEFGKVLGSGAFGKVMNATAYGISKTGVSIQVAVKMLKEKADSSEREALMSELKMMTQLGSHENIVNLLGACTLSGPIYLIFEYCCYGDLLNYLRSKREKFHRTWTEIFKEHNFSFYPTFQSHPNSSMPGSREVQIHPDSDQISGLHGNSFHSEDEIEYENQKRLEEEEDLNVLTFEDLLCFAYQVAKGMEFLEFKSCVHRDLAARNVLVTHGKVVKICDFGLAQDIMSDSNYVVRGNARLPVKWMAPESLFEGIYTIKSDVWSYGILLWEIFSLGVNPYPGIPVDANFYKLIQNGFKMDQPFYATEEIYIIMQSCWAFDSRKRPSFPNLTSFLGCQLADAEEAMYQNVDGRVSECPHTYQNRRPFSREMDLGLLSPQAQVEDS

[3] = molecular target: T2, FLT3(D835V) (Homo sapiens, UniProt P36888, D835V); type: binding
T2 sequence (P36888 27-993 D835V): T1 sequence (P36888 27-993 R834Q) with Q808R, D809V

With CCc1nc(C(N)=O)c(Nc2ccc(N3CCC4(CCN(C)CC4)CC3)c(C)c2)nc1NC1CCOCC1.O=C(O)C(F)(F)F the IC50 [1] was 3.02 nM, the Kd [2] was 31 nM and the Kd [3] was 0.23 nM.
